Test results: article PMC2824046 (Journal of the American Chemical Society, 2010)

Target: protein phosphatase 2A (PP2A)
Assay: PP2A inhibition assay
Format: biochemical

IC50: 720 nM
SMILES: CCCCC/C=C/C=C\C=C/[C@H](O)[C@H](C)[C@H](C/C=C/[C@@H]1OC(=O)C=C[C@@H]1O)OP(=O)(O)O [compound 2, phostriecin]
